Biological target: Mitogen-activated protein kinase kinase kinase kinase 1 (Homo sapiens, UniProt Q92918)
Assay: Enzymatic Activity Assay: The enzymatic activity of Wild Type HPK1 (MAP4K1) Kinase was measured in the presence or absence of an inhibitor compound of the present disclosure by preparation of a reaction mixture containing a fluorescein tagged peptide (2 micromolar final concentration), ATP (Adenosine Triphosphate, 500 micromolar final concentration) and Wild Type kinase (6 nM final concentration) in a buffer system comprising 50 mM HEPES (Buffer), 3 mM MgCl2, 5% w/v Trehalose, 0.01% Brij 35 (Detergent), 0.1% Pluronic F127 (Surfactant), 0.1 mM EDTA (Ethylenediaminetetraacetic acid), 0.1 mM EGTA (ethylene glycol-bis(β-aminoethyl ether)-N,N,N′,N′-tetraacetic acid) and 1 mM DTT (Dithiothreitol) and at a pH of 7.4. The reactions were quenched by the addition of EDTA to a final concentration of 25 mM. A Caliper EZ reader was used to measure the extent of substrate to product conversion.The peptide substrate used in the HPK1 assay was designed based on the amino acid sequence surrounding serine residue 376 of SLP76-Lymphocyte cytosolic protein 2 (a known intracellular substrate of HPK1). […]
Type: cell-based

Mitogen-activated protein kinase kinase kinase kinase 1, sequence (Q92918 whole entry): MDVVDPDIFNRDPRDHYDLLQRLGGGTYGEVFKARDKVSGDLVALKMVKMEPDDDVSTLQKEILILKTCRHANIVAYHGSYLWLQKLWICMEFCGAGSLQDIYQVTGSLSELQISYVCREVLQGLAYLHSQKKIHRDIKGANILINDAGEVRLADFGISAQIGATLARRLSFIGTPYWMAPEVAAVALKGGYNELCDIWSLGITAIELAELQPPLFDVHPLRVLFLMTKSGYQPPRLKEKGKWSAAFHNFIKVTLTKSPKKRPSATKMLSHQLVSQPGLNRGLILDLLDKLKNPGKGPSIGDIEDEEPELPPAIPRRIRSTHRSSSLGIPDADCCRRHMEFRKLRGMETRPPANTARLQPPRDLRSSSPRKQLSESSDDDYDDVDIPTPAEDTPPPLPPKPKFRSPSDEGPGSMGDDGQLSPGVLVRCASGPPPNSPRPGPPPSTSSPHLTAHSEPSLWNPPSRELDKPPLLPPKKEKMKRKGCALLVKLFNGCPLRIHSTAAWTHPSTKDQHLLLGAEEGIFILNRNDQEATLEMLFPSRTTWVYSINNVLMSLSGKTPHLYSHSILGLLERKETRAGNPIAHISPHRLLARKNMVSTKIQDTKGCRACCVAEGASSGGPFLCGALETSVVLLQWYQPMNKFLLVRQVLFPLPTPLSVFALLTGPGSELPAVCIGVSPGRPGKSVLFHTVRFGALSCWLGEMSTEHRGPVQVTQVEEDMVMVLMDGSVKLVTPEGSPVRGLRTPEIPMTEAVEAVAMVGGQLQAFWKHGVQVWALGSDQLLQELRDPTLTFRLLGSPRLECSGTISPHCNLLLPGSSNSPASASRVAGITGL

In the case of `CN1CCc2cc(Nc3ncc(Cl)c(Nc4ccccc4P(C)(C)=O)n3)c(Cl)cc2C1`, the IC50 is reported as < 5 nM.

— ChEMBL document CHEMBL5728856, “Anilinopyrimidines as haematopoietic progenitor kinase 1 (HPK1) inhibitors” (2021)
